In the experiment the test system is mouse primary cortical neurons, thapsigargin death, survival counting. Description: ER stress death suppression in cortical neurons – imaging, mouse primary cortical neurons, immunostaining, death counting, ER stress cell death inhibitors, late-stage follow-up (AID 1386). The following applies: at 25 µM.

Each structure is given as a SMILES string.

Turning to `COc1ccc(C2CC(=O)C3=C(C2)Nc2ccccc2NC3c2cccc(Oc3ccccc3)c2)cc1OC` (configuration not stated), the survival runs as follows: (stronger effect = higher value) 87%; (measured here: survival without thapsigargin) 91%.
